Our source for the IC50 values is US20230303570A1, “KINASE INHIBITORS AND USES THEREOF” (ABM Therapeutics Corporation, priority 2020, published 2023).

The target in one assay is T1, SRC (Homo sapiens, UniProt P12931).
T1 construct: purchased Carna Biosciences
Put plainly: In vitro kinase assay, SRC (Caliper EZ Reader conversion). In kind it is biochemical. Here is the method:
(§1) The effect of the compounds on the activity of SRC and PAK1 kinase were assessed. SRC and PAK1 kinase enzymes were obtained from Carna Biosciences.
Test compounds were dissolved in 100% DMSO to prepare a 20 mM stock. Compounds were stored in −20° C. and protected from light. […] Saracatinib was used as a positive control for the SRC assay, and FRAX597 was used as a positive control for the PAK1 assay. For the positive controls, a 3-fold serial dilution was made to achieve a total of 10 concentrations. 10 μL 1× Kinase buffer was used as the negative control.
First, 250 nL of the compounds at each dilution were transferred into wells of a 384-well plate. […] Then, 10 μL of enzyme mix was added to the 384-well plate, and the enzymes and compounds were pre-incubated at room temperature for 10 minutes. […] Then, 15 μL of substrate mix was added to a 384-well plate and reacted at room temperature for 30 min and 60 min. The reaction was stopped by adding 30 μL of the stop buffer, and the conversion rate was read using a Caliper EZ Reader.
(§2) Percent inhibition is calculated according to the following equation: […]
(§3) wherein “Conversion %_sample” is the conversion percentage value of the sample; “Conversion %_min” is the average conversion percentage value of the negative control; and “Conversion %_max” is the average conversion percentage value of the positive control.
(§4) The dose-response curve was fitted using GraphPad Prism software (version 5, […]), and the IC50 values for each compounds were calculated by log(inhibitor) vs. response using a variable slope program with the following formula:
(§5) Y=Bottom+(Top-Bottom)/(1+10^((Log IC50−X)*HillSlope))

In another assay the target is PAK1 (Homo sapiens, UniProt Q13153). Briefly: In vitro kinase assay, PAK1 (Caliper EZ Reader conversion). It counts as biochemical. The arrangement: purchased Carna Biosciences. As to the method: as §1
PAK1, sequence (Q13153 whole entry): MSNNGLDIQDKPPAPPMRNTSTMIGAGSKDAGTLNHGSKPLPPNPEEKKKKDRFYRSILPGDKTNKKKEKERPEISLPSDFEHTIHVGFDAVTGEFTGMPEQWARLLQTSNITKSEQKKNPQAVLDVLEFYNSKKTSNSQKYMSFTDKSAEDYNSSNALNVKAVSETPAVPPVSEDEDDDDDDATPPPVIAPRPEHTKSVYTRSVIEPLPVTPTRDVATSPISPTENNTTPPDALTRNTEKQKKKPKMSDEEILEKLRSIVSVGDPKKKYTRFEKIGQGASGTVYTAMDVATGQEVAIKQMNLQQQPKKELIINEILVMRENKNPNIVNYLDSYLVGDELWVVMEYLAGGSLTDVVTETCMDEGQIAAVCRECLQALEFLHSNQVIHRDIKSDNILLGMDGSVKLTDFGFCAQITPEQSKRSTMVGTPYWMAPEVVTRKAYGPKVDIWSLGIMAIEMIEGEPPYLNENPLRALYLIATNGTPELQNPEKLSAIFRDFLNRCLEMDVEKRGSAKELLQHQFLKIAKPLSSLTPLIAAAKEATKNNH
Test compounds were dissolved in 100% DMSO to prepare a 20 mM stock. Compounds were stored in −20° C. and protected from light. A 100×solution of the compounds were prepared, from which 4-fold serial dilutions was made to achieve a total of 6 concentrations. Saracatinib was used as a positive control for the SRC assay, and FRAX597 was used as a positive control for the PAK1 assay. For the positive controls, a 3-fold serial dilution was made to achieve a total of 10 concentrations. 10 μL 1× Kinase buffer was used as the negative control.
First, 250 nL of the compounds at each dilution were transferred into wells of a 384-well plate. The PAK1 and SRC kinases were diluted to a 2.5×final concentration with 1×Kinase buffer. Then, 10 μL of enzyme mix was added to the 384-well plate, and the enzymes and compounds were pre-incubated at room temperature for 10 minutes. […] Then, 15 μL of substrate mix was added to a 384-well plate and reacted at room temperature for 30 min and 60 min. The reaction was stopped by adding 30 μL of the stop buffer, and the conversion rate was read using a Caliper EZ Reader.
as §2, §3, §4, §5

Read-outs that look alike come from different tables or passages of the source.

T1 sequence (P12931 whole entry): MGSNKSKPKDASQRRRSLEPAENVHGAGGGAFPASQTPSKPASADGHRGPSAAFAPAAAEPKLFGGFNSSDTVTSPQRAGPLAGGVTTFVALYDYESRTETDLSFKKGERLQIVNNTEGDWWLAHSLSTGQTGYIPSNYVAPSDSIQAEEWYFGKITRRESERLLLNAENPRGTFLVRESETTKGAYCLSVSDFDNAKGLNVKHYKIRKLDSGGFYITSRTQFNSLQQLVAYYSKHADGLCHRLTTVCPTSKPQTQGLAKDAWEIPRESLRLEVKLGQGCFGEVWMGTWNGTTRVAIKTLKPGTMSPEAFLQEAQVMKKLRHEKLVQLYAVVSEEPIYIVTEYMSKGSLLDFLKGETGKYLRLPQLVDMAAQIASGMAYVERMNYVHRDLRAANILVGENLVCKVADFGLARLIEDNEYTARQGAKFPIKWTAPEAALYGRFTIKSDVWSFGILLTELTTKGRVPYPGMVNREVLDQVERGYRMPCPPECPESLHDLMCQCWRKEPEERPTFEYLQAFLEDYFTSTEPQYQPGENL

`Fc1cc(Nc2ncc3c(n2)N2CCN=C2C(c2ccc(Cl)cc2Cl)=C3)ccc1N1CCNCC1` [Compound 1, 6-(2,4-dichlorophenyl)-N-(3-fluoro-4-(piperazin-1-yl)phenyl)-8,9-dihydroimidazo[1′,2′:1,6]pyrido[2,3-d]pyrimidin-2-amine]: the half-inhibitory concentration (IC50) at SRC (read-out: SRC IC50) and against PAK1 was less than 0.1 µM throughout.
For `CN1CCN(c2ccc(Nc3ncc4c(n3)N3CCN=C3C(c3ccc(Cl)cc3Cl)=C4)cc2F)CC1` [Compound 2, 6-(2,4-dichlorophenyl)-N-(3-fluoro-4-(4-methylpiperazin-1-yl)phenyl)-8,9-dihydroimidazo[1′,2′:1,6]pyrido[2,3-d]pyrimidin-2-amine], the IC50 against PAK1 was less than 0.1 µM.
For the compound `CCN1CCN(c2ccc(Nc3ncc4c(n3)N3CCN=C3C(c3ccc(Cl)cc3Cl)=C4)cc2F)CC1` [Compound 3, 6-(2,4-dichlorophenyl)-N-(4-(4-ethylpiperazin-1-yl)-3-fluorophenyl)-8,9-dihydroimidazo[1′,2′:1,6]pyrido[2,3-d]pyrimidin-2-amine], the results for the concentration for half-maximal inhibition (IC50) at SRC (read-out: SRC IC50) and against PAK1 were less than 0.1 µM and 0.1 to 10 µM, respectively.
Taken in the same sequence, the figures for `CCNc1ncc2c(n1)N1CCN=C1C(c1ccc(Cl)cc1Cl)=C2` [Compound 4, 6-(2,4-dichlorophenyl)-N-ethyl-8,9-dihydroimidazo[1′,2′:1,6]pyrido[2,3-d]pyrimidin-2-amine] were more than 10 µM and more than 10 µM.
As to `Clc1ccc(C2=Cc3cnc(NC4CCOCC4)nc3N3CCN=C23)c(Cl)c1` [Compound 5, 6-(2,4-dichlorophenyl)-N-(tetrahydro-2H-pyran-4-yl)-8,9-dihydroimidazo[1′,2′:1,6]pyrido[2,3-d]pyrimidin-2-amine], the IC50 at SRC (read-out: SRC IC50) and against PAK1 was more than 10 µM throughout.
Regarding `Fc1ccccc1Nc1ncc2c(n1)N1CCN=C1C(c1ccc(Cl)cc1Cl)=C2` [Compound 6, 6-(2,4-dichlorophenyl)-N-(2-fluorophenyl)-8,9-dihydroimidazo[1′,2′:1,6]pyrido[2,3-d]pyrimidin-2-amine], the half-maximal inhibitory concentration (IC50) was 0.1 to 10 µM on SRC (read-out: SRC IC50) and more than 10 µM against PAK1.
`Fc1cc(N2CCNCC2)ccc1Nc1ncc2c(n1)N1CCN=C1C(c1ccc(Cl)cc1Cl)=C2` [Compound 7, 6-(2,4-dichlorophenyl)-N-(2-fluoro-4-(piperazin-1-yl)phenyl)-8,9-dihydroimidazo[1′,2′:1,6]pyrido[2,3-d]pyrimidin-2-amine]: the IC50 is less than 0.1 µM at SRC and more than 10 µM against PAK1.
Regarding `CCN1CCN(c2ccc(Nc3ncc4c(n3)N3CCN=C3C(c3ccc(Cl)cc3Cl)=C4)c(F)c2)CC1` [Compound 9, 6-(2,4-dichlorophenyl)-N-(4-(4-ethylpiperazin-1-yl)-2-fluorophenyl)-8,9-dihydroimidazo[1′,2′:1,6]pyrido[2,3-d]pyrimidin-2-amine], the IC50 at SRC (read-out: SRC IC50) is less than 0.1 µM.
Same read-out and setting: then `Fc1cc(N2CCNCC2)ccc1Nc1ncc2c(n1)N1CCN=C1C=C2` [Compound 10, N-(2-fluoro-4-(piperazin-1-yl)phenyl)-8,9-dihydroimidazo[1′,2′:1,6]pyrido[2,3-d]pyrimidin-2-amine], with more than 10 µM.
Consider `Cc1ccccc1C1=Cc2cnc(Nc3ccc(N4CCNCC4)cc3F)nc2N2CCN=C12` [Compound 30, N-(2-fluoro-4-(piperazin-1-yl)phenyl)-6-(o-tolyl)-8,9-dihydroimidazo[1′,2′:1,6]pyrido[2,3-d]pyrimidin-2-amine], for which the IC50 at PAK1 is more than 10 µM.
`Fc1cc(N2CCNCC2)ccc1Nc1ncc2c(n1)N1CCN=C1C(c1ccccn1)=C2` [Compound 32, N-(2-fluoro-4-(piperazin-1-yl)phenyl)-6-(pyridin-2-yl)-8,9-dihydroimidazo[1′,2′:1,6]pyrido[2,3-d]pyrimidin-2-amine] came in with a half-maximal inhibitory concentration (IC50) at PAK1 of more than 10 µM.
The compound `Fc1cc(N2CCNCC2)ccc1Nc1ncc2c(n1)N1CCN=C1C(c1cscn1)=C2` [Compound 33, N-(2-fluoro-4-(piperazin-1-yl)phenyl)-6-(thiazol-4-yl)-8,9-dihydroimidazo[1′,2′:1,6]pyrido[2,3-d]pyrimidin-2-amine] had an IC50 at PAK1 of 0.1 to 10 µM.
Still for that read-out and setting: then `Fc1cc(N2CCNCC2)ccc1Nc1ncc2c(n1)N1CCN=C1C(c1ccncc1)=C2` [Compound 34, N-(2-fluoro-4-(piperazin-1-yl)phenyl)-6-(pyridin-4-yl)-8,9-dihydroimidazo[1′,2′:1,6]pyrido[2,3-d]pyrimidin-2-amine], with more than 10 µM; and `COc1nc(N2CCNCC2)ccc1Nc1ncc2c(n1)N1CCN=C1C(c1ccccc1)=C2` [Compound 37, N-(2-methoxy-6-(piperazin-1-yl)pyridin-3-yl)-6-phenyl-8,9-dihydroimidazo[1′,2′:1,6]pyrido[2,3-d]pyrimidin-2-amine], with more than 10 µM; and `COc1nc(N2CCNCC2)ccc1Nc1ncc2c(n1)N1CCN=C1C(c1ccc(C)cc1)=C2` [Compound 38, N-(2-methoxy-6-(piperazin-1-yl)pyridin-3-yl)-6-(p-tolyl)-8,9-dihydroimidazo[1′,2′:1,6]pyrido[2,3-d]pyrimidin-2-amine], with more than 10 µM.
Take `COc1nc(N2CCNCC2)ccc1Nc1ncc2c(n1)N1CCN=C1C(c1ccncc1)=C2` [Compound 41, N-(2-methoxy-6-(piperazin-1-yl)pyridin-3-yl)-6-(pyridin-4-yl)-8,9-dihydroimidazo[1′,2′:1,6]pyrido[2,3-d]pyrimidin-2-amine]: at SRC (read-out: SRC IC50), the IC50 is more than 10 µM.
On the same count and under the same terms, then `Clc1cccc(Cl)c1C1=Cc2cnc(N3CCN(c4ccncc4)CC3)nc2N2CCN=C12` [Compound 51, 6-(2,6-dichlorophenyl)-2-(4-(pyridin-4-yl)piperazin-1-yl)-8,9-dihydroimidazo[1′,2′:1,6]pyrido[2,3-d]pyrimidine], with 0.1 to 10 µM.
Same read-out and setting: under `C1=C(c2ccccc2)C2=NCCCN2c2nc(Nc3ccncc3)ncc21` [Compound 53, 6-phenyl-N-(pyridin-4-yl)-9,10-dihydro-8H-pyrido[1,6-a:2,3-d′]dipyrimidin-2-amine] stands more than 10 µM; under `Clc1ccccc1C1=Cc2cnc(Nc3ccncc3)nc2N2CCCN=C12` [Compound 54, 6-(2-chlorophenyl)-N-(pyridin-4-yl)-9,10-dihydro-8H-pyrido[1,6-a:2,3-d′]dipyrimidin-2-amine], more than 10 µM; under `Fc1cnccc1Nc1ncc2c(n1)N1CCCN=C1C(c1ccccc1)=C2` [Compound 55, N-(3-fluoropyridin-4-yl)-6-phenyl-9,10-dihydro-8H-pyrido[1,6-a:2,3-d′]dipyrimidin-2-amine], more than 10 µM.
`Fc1ccccc1Nc1ncc2c(n1)N1CCCN=C1C(c1ccccc1)=C2` [Compound 56, N-(2-fluorophenyl)-6-phenyl-9,10-dihydro-8H-pyrido[1,6-a:2,3-d′]dipyrimidin-2-amine]: on SRC (read-out: SRC IC50), the half-maximal inhibitory concentration (IC50) is more than 10 µM.
The same measure, in the same setting: then `COc1cccc(Nc2ncc3c(n2)N2CCCN=C2C(c2ccccc2Cl)=C3)c1` [Compound 60, 6-(2-chlorophenyl)-N-(3-methoxyphenyl)-9,10-dihydro-8H-pyrido[1,6-a:2,3-d′]dipyrimidin-2-amine], with 0.1 to 10 µM; and `COc1ccccc1Nc1ncc2c(n1)N1CCCN=C1C(c1ccccc1Cl)=C2` [Compound 61, 6-(2-chlorophenyl)-N-(2-methoxyphenyl)-9,10-dihydro-8H-pyrido[1,6-a:2,3-d′]dipyrimidin-2-amine], with 0.1 to 10 µM; and `CCNc1ncc2c(n1)N1CCCN=C1C(c1c(C)ccc3[nH]ncc13)=C2` [Compound 66, N-ethyl-6-(5-methyl-1H-indazol-4-yl)-9,10-dihydro-8H-pyrido[1,6-a:2,3-d′]dipyrimidin-2-amine], with 0.1 to 10 µM.
Consider `Oc1ccncc1Nc1ncc2c(n1)N1CCCN=C1C(c1ccccc1Cl)=C2` [Compound 67, 3-((6-(2-chlorophenyl)-9,10-dihydro-8H-pyrido[1,6-a:2,3-d′]dipyrimidin-2-yl)amino)pyridin-4-ol], for which the half-maximal inhibitory concentration (IC50) on SRC (read-out: SRC IC50) is more than 10 µM.
Same read-out and setting: under `Cc1ccc(NC(=O)c2cc(C(F)(F)F)ccn2)cc1C1=Cc2cnc(N)nc2N2CCCN=C12` [Compound 76, N-(3-(2-amino-9,10-dihydro-8H-pyrido[1,6-a:2,3-d′]dipyrimidin-6-yl)-4-methylphenyl)-4-(trifluoromethyl)picolinamide] stands 0.1 to 10 µM.
Regarding `Clc1ccccc1C1=Cc2cnc(Nc3ccc(N4CCOCC4)cc3)nc2N2CCN=C12` [Compound 89, 6-(2-chlorophenyl)-N-(4-morpholinophenyl)-8,9-dihydroimidazo[1′,2′:1,6]pyrido[2,3-d]pyrimidin-2-amine], the IC50 at PAK1 fell in the range of 0.1 to 10 µM.

In general, IC50 refers to the point on the concentration scale where inhibition reaches its midpoint.
